We go through two molecules from US20090291950A1, “BICYCLIC HETEROARYL INHIBITORS OF PDE4” (KALYPSYS, INC., priority 2006, published 2009).

For test [1], the system named is dry eye (corneal staining, tear breakup time). Briefly: Lacrimal gland inflammation-induced dry eye in rabbits. The format is in vivo. Particulars: topical ocular BID, rabbit ConA dry eye. The source says:
A more detailed description of the assay used herein may be found in Naglehout, T J et al. 2005, “Preservation of Tear Film Integrity and Inhibition of Corneal Injury by Dexamethasone in a Rabbit Model of Lacrimal Gland Inflammation-Induced Dry Eye,”J. Ocular Pharm. Ther., 21:2. 139-148, the disclosure of which is hereby incorporated by reference as if written herein in its entirety. Rabbits (n=4/group) were randomized into treatment groups and dosed topically BID with maxidex vehicle or test drug beginning one day prior to initiation of dry eye. Each rabbit received bilateral lacrimal gland injections of saline or ConA (300 μg/30 μl) and topical ocular dosing was continued BID throughout the study. Desiccation was initiated 1-2 hours following lacrimal gland injection by placing conscious rabbits in the environmental chamber (10-15% humidity/72° F.). Following 72 consecutive hours of exposure to this dry environment, the animals were anesthetized and sutures were placed in each upper and lower eyelid and lifted to form a corneal/conjunctival cup. Methylene blue dye (1 mL, 1% in dH2O) was added to the cup for three minutes and the excess removed by washing with 200 mL BSS®. The contralateral eye was then stained using the same procedure. Rabbits were euthanized immediately following the staining procedure and the eyes were excised. The corneas were isolated with a trephine and the 9.5-mm punch of the cornea was placed in 2 mL acetone/saturated sodium sulfate (7:3, vol./vol.). Absorbance of the extracted dye was determined at 660 nm. TBUT was quantified in a separate group of treated animals. TBUT was determined by instilling 5 μL sodium fluorescein into the cul de sac and manually blinking the lids to distribute the fluorescein within the tear film. Under slit lamp observation, the eye was held open and the time whereby one or more black spots or streaks appeared in the precorneal tear film was recorded. The rabbits were euthanized 3 days following ConA inj ection.

The target of the next test is T1, PDE4B (Homo sapiens, UniProt Q07343).
T1 construct: hexahistidine (His6) (N); made in house
T1 sequence (Q07343 330-659 limits assumed, species assumed): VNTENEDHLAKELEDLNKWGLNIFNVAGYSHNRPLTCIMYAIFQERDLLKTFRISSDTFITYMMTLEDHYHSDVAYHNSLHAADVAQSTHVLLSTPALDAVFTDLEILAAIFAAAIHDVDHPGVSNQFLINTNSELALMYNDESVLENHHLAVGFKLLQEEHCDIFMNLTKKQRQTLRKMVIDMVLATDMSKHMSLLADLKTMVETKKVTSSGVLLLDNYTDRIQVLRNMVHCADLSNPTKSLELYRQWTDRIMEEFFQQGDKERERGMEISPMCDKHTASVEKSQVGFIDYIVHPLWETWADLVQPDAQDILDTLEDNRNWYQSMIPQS
Briefly: coupled PDE/AK bioluminescent assay. The format is biochemical. The following applies: catalytic domain of PDE4B. The source says: Phosphodiesterases regulate the activity of the second messenger cyclic adenosine monophosphate (cAMP) by hydrolyzing cAMP to adenosine monophosphate (AMP). We developed a novel coupled PDE/AK bioluminescent high-throughput assay to measure the activity of phosphodiesterases. In the PDE/AK assay, the AMP produced from the hydrolysis of cAMP by phosphodiesterase is converted to adenosine diphosphate (ADP) by the phosphotransferase activity of adenylate kinase (also known as ADK or myokinase). Adenylate kinase will catalyze the conversion of 1 mole of AMP and 1 mole of ATP into 2 moles of ADP. Thus the conversion of AMP to ADP will result in the subsequent loss of ATP. The decrease in ATP concentration can be monitored as light output using luciferase in a reaction that requires ATP to produce light. The PDE/AK assay uses luciferase, which catalyzes the production of light from ATP present in the reaction mix. The amount of emitted light is inversely proportional to the level of AMP present in the reaction. Test compounds are incubated with the phosphodiesterases and phosphodiesterase inhibitors will decrease the rate of cAMP hydrolysis and decrease the subsequent production of AMP. Thus phosphodiesterase inhibitors will decrease the conversion of ATP to ADP and result in the greatest emission of light.
Compounds may be screened for functional potency in in vitro biochemical assays for their ability to inhibit the activity of phosphodiesterase (PDE) enzymes. A novel coupled PDE/AK assay was utilized to measure the inhibitory activity of compounds on PDE isoforms. The catalytic domain of PDE4B was fused to an amino-terminus hex-histidine affinity tag and purified. PDE4B enzyme was incubated with compounds for 10 minutes. Cyclic AMP substrate, ATP and adenylate kinase were then added to the PDE enzyme mix and incubated for 45 minutes at room temperature. A commercial ATP detection assay, Perkin Elmer's easyLite ATP detection reagent, was then added to measure the relative amount of ATP present in the reaction. After 10 minute incubation, the luminescent signal was quantitated with either the Perkin Elmer Viewlux or Molecular Devices Acquest or Analyst. Roflumilast and Rolipram are the positive controls used in the assay.
The PDE/AK assay can be performed with any cAMP dependent phosphodiesterase, and can be performed in 96-, 384-, or 1536-well plates. […] Specifically, the use of radioactive substrates in a phosphodiesterase activity assay requires special protocols for handling and waste disposal, and reduced throughput. Modified substrates add the additional complexity of potentially altering the binding to the phosphodiesterase catalytic site. Fluorescently modified substrates may cause fluorescence artifacts that may interfere in the interpretation of assay results. The use of beads that selectively bind to either the cAMP or AMP may cause an additional complexity in reagent handling. The use of antibodies that selectively bind to either cAMP or AMP can be extremely costly with a relatively small signal to noise ratio. Therefore, the novel PDE/AK assay represents a simple, cost-effective alternative to known methods.

Where [2] appears, read: 1 × 10^−2 percent concentration.
Setting [3] is: 1 × 10^−4 percent concentration.
[4] abbreviates: 1 × 10^−6 percent concentration.

The IC50 is the concentration needed to halve the response being measured. Low readings indicate greater potency in that assay, high ones weaker potency in that assay. On to `COc1ccc2c(Nc3c(Cl)cncc3Cl)cc(OCCN(C)C)nc2c1OCC1CC1` [Example 30, 8-(Cyclopropylmethoxy)-N-(3,5-dichloropyridin-4-yl)-2-(2-(dimethylamino)ethoxy)-7-methoxyquinolin-4-amine], for which the “Activity at Percent Concentration Tested” value in test [1] (setting [2]), in test [1] (setting [3]) and in test [1] (setting [4]) was “Inactive” throughout. For the same molecule, the IC50 against PDE4B is at most 1 µM.

In the case of `COc1ccc2c(Nc3c(Cl)cncc3Cl)cc(OCCN(C)C)nc2c1OC1CCCC1` [Example 25, 8-(Cyclopentyloxy)-N-(3,5-dichloropyridin-4-yl)-2-(2-(dimethylamino)ethoxy)-7-methoxyquinolin-4-amine], the “Activity at Percent Concentration Tested” value in test [1] (setting [2]), in test [1] (setting [3]) and in test [1] (setting [4]) was “Inactive” each time. The concentration for half-maximal inhibition (IC50) at PDE4B was at most 1 µM.
